Data from US11849727B2, “Synergistic formulations for control and repellency of biting arthropods” (Bedoukian Research, Inc., priority 2013, dated 2023).

System: Aedes aegypti
Assay: Arm in Cage testing on human subjects (modified WHO - Nigel Hill protocol), dose response
Format: in vivo
Conditions: individual component, LDP Line dose response curve
Protocol: A Modified WHO-[…] protocol was used for Dose Response curve generation. Three concurrent repetitions were conducted with 4 subjects (2 male, 2 female). Approximately 60 non blood-fed, female Aedes aegypti mosquitoes were placed in a 12''×12''×12'' (28316.85 cm^3) plexi and screen cage. […] Arms were inserted into the first cage for 30 seconds, with number of landings (with intent to bite) recorded at the end of the time interval. The same procedure was used for the 2nd and 3rd cage in succession. Control arm was inserted first, followed by the opposite arm treated with ethanol only (as a treatment control). The 'treatment arm' is then treated with dose 1 and inserted, then dose 2, dose 3, and so on. After complete protection was achieved, control arm was reinserted to verify continued activity. Percent repellency was calculated by utilizing the formula [{(C-T)/C}*100]. Where C=the number of mosquitoes landing with intent to bite on the ethanol only treated arm, and T=the number of mosquitoes landing with intent to bite on the 'repellent' treated arm. LDP Line® software (Bakr, E 2007) was used to determine ED50 (effective dose to repel 50%) and compare materials. […] Significance was determined by the use of 95% confidence intervals. […]

SMILES: CCN(CC)C(=O)c1cccc(C)c1 [DEET, N,N-Diethyl-m-toluamide]
- percent dose required to generate an ED25 (25% repellency): 0.035%
